Values after ≈ are worked out from the molar mass of the structure shown. Where two headings read alike, the source gives them in different places. Numbered stars: 1 amine (or outer) side, 2 acyl side, 3 side chain; on linkers, the order of the positions; unused ones are H or OH. Bridge positions count the residues as written; N and C are the ends. Square brackets hold non-standard residues; d marks the D form. Peptide text beside a SMILES is read from it. * marks the point of attachment. NMePhe(4-NMe2) = CN[C@@H](Cc1ccc(N(C)C)cc1)C(=O)O; X1 = O=C([C@@H]1CC=C(CN2CCOCC2)CN1[*:1])[*:2]; Picolinoyl(3-OH) = O=C(c1ncccc1O)*; Phg = N[C@H](C(=O)O)c1ccccc1; dAbu = CC[C@@H](N)C(=O)O
Key:
Paenibacillus sp. LC231 [1] = system: T1, Paenibacillus sp. LC231; assay: microbe, parasite or virus in culture; parameters: antibacterial susceptibility, minimal inhibitory concentration (quantitative antibiogram)
T1 construct: LC231
Description: (§1) We generated a quantitative antibiogram for Paenibacillus sp. LC231 for 40 different antibiotics that target diverse cellular processes and compared it with the susceptibility of a surface strain of Paenibacillus lautus ATCC 43898, the pathogen Staphylococcus aureus RN4220 and the environmental bacterium Kocuria rhizophila (formerly identified as Micrococcus luteus) (Supplementary Tables 1 and 2). […] Further experiments in this study investigate the molecular basis of resistance and not the contribution of each genetic determinant to the resistance phenotype of Paenibacillus sp. LC231. […] We focused our investigation on Paenibacillus sp. LC231 and determined that in addition to resistance to 14 classes of antibiotic, it inactivates 7 distinct classes.

Paenibacillus sp. LC231 [2] = system: T1, Paenibacillus sp. LC231; assay: microbe, parasite or virus in culture; parameters: broth microdilution MIC, growth inhibition of Paenibacillus sp. LC231
Description: as §1

AAC(6′)-34 = system: T2, AAC(6′)-34; assay: CoA liberation with DTDP, steady-state kinetics; format: biochemical, Paenibacillus sp. LC231; conditions: 500 μM acetyl-CoA, 25 mM MES pH 6.0, 1 mM EDTA, 25 °C
T2 construct: recombinant in E. coli BL21(DE3), pET vector, Ni-NTA purified

Structure (SMILES) | MIC (Paenibacillus sp. LC231 [1]) [µg/mL] | further results
CC(=O)NC[C@H]1CN(c2ccc(N3CCOCC3)c(F)c2)C(=O)O1 [Linezolid] | 1 (≈ 2.96 µM) | 
C[C@@H](O)[C@H]1C(=O)N2C(C(=O)O)=C(S[C@@H]3CN[C@H](C(=O)N(C)C)C3)[C@H](C)[C@H]12 [Meropenem] | 2 (≈ 5.22 µM) | 
C/C(=C\C(=O)OCCCCCCCCC(=O)O)C[C@@H]1OC[C@H](C[C@@H]2O[C@H]2[C@@H](C)[C@H](C)O)[C@@H](O)[C@H]1O [Mupirocin] | ≥ 100 | 
CCn1cc(C(=O)O)c(=O)c2ccc(C)nc21 [Nalidixic acid] | 4 (≈ 17.2 µM) | 
NC[C@@H]1O[C@H](O[C@H]2[C@@H](O)[C@H](O[C@@H]3[C@@H](O)[C@H](N)C[C@H](N)[C@H]3O[C@H]3O[C@H](CN)[C@@H](O)[C@H](O)[C@H]3N)O[C@@H]2CO)[C@H](N)[C@@H](O)[C@@H]1O [Neomycin] | 2 (≈ 3.25 µM) | 
CO[C@@H]1[C@@H](OC(N)=O)[C@@H](O)[C@H](Oc2ccc3c(O)c(NC(=O)c4ccc(O)c(CC=C(C)C)c4)c(=O)oc3c2C)OC1(C)C [Novobiocin] | 0.25 (≈ 0.408 µM) | 
CN[C@@H]1[C@H](O)[C@H](NC)[C@H]2O[C@@]3(O)C(=O)C[C@@H](C)O[C@H]3O[C@@H]2[C@H]1O [Spectinomycin] | ≥ 128 | 
CN[C@@H]1[C@H](O[C@H]2[C@H](O[C@H]3[C@H](O)[C@@H](O)[C@H](N=C(N)N)[C@@H](O)[C@@H]3N=C(N)N)O[C@@H](C)[C@]2(O)C=O)O[C@@H](CO)[C@H](O)[C@H]1O [Streptomycin] | ≥ 128 | 
CC[C@H]1OC(=O)[C@H](C)C(=O)[C@H](C)[C@@H](O[C@@H]2O[C@H](C)C[C@H](N(C)C)[C@H]2O)[C@](C)(OC)C[C@@H](C)C(=O)[C@H](C)[C@H]2N(CCCCn3cnc(-c4cccnc4)c3)C(=O)O[C@]12C [Telithromycin] | 2 (≈ 2.46 µM) | 
CN(C)[C@@H]1C(O)=C(C(N)=O)C(=O)[C@@]2(O)C(O)=C3C(=O)c4c(O)cccc4[C@@](C)(O)[C@H]3C[C@@H]12 [Tetracycline] | ≥ 128 | 
C=C(NC(=O)C(=C)NC(=O)c1csc(C2=N[C@@H]3c4csc(n4)[C@H]4NC(=O)c5csc(n5)[C@H]([C@](C)(O)[C@@H](C)O)NC(=O)[C@H]5CSC(=N5)/C(=C/C)NC(=O)[C@H]([C@@H](C)O)NC(=O)c5csc(n5)[C@]3(CC2)NC(=O)[C@H](C)NC(=O)C(=C)NC(=O)[C@H](C)NC(=O)[C@H]([C@@H](C)CC)N[C@@H]2C=Cc3c([C@H](C)O)cc(nc3[C@H]2O)C(=O)O[C@@H]4C)n1)C(N)=O [Thiostrepton] |  | MIC (Paenibacillus sp. LC231 [2]): 0.25 µg/mL (≈ 0.15 µM)
C=C[C@]1(C)C[C@@H](OC(=O)CSCCN(CC)CC)[C@]2(C)[C@H](C)CC[C@]3(CCC(=O)[C@H]32)[C@@H](C)[C@@H]1O [Tiamulin] | 32 (≈ 64.8 µM) | 
NC[C@H]1O[C@H](O[C@H]2[C@H](O)[C@@H](O[C@H]3O[C@H](CO)[C@@H](O)[C@H](N)[C@H]3O)[C@H](N)C[C@@H]2N)[C@H](N)C[C@@H]1O [Tobramycin] | 32 (≈ 68.4 µM) | 
CN[C@H](CC(C)C)C(=O)N[C@H]1C(=O)N[C@@H](CC(N)=O)C(=O)N[C@H]2C(=O)N[C@H]3C(=O)N[C@H](C(=O)N[C@H](C(=O)O)c4cc(O)cc(O)c4-c4cc3ccc4O)[C@H](O)c3ccc(c(Cl)c3)Oc3cc2cc(c3O[C@@H]2O[C@H](CO)[C@@H](O)[C@H](O)[C@H]2O[C@H]2C[C@](C)(N)[C@H](O)[C@H](C)O2)Oc2ccc(cc2Cl)[C@H]1O [Vancomycin] | 1 (≈ 0.69 µM) | 
O=C(N[C@H](CO)[C@H](O)c1ccc([N+](=O)[O-])cc1)C(Cl)Cl [chloramphenicol] | 32 (≈ 99 µM) | 
C[C@H]1O[C@H](O[C@H]2[C@H](O)[C@@H](O)[C@@H](O)[C@H](O)[C@@H]2O)[C@@H](N)C[C@@H]1N=C(N)C(=O)O [kasugamycin] |  | MIC (Paenibacillus sp. LC231 [2]): ≥ 128 µg/mL
CC[C@H]1NC(=O)[C@@H](NC(=O)c2ncccc2O)[C@@H](C)OC(=O)[C@H](c2ccccc2)NC(=O)[C@@H]2CC=C(CN3CCOCC3)CN2C(=O)[C@H](Cc2ccc(N(C)C)cc2)N(C)C(=O)[C@@H]2CCCN2C1=O [linopristin] ({Picolinoyl(3-OH)}-T[dAbu]P[NMePhe(4-NMe2)][X1][Phg]; ester 1-C) | 64 (≈ 67.4 µM) | 
CO[C@H]1/C=C/O[C@@]2(C)Oc3c(C)c(O)c4c(O)c(c(/C=N/N5CCN(C)CC5)c(O)c4c3C2=O)NC(=O)/C(C)=C\C=C\[C@H](C)[C@H](O)[C@@H](C)[C@@H](O)[C@@H](C)[C@H](OC(C)=O)[C@@H]1C [rifampin] | 1 (≈ 1.22 µM) | 
CN[C@@H]1[C@@H](O)[C@@H](O[C@@H]2[C@@H](O)[C@H](O[C@H]3OC(CN)=CC[C@H]3N)[C@@H](N)C[C@H]2N)OC[C@]1(C)O [sisomicin] |  | Km (AAC(6′)-34): 4.7 ± 0.4 µM
CC[C@H]1OC(=O)C[C@@H](O)[C@H](C)[C@@H](O[C@@H]2O[C@H](C)[C@@H](O[C@H]3C[C@@](C)(O)[C@@H](O)[C@H](C)O3)[C@H](N(C)C)[C@H]2O)[C@@H](CC=O)C[C@@H](C)C(=O)/C=C/C(C)=C/[C@@H]1CO[C@@H]1O[C@H](C)[C@@H](O)[C@@H](OC)[C@H]1OC [tylosin] | 16 (≈ 17.5 µM) | 

Reference: PMC5155152, “A diverse intrinsic antibiotic resistome from a cave bacterium” (Nature Communications, 2016)
